Source: patent US6479232B1, “Human xenografts for microbicide testing and anatomical modeling” (The Pennsylvania State University, priority 1999, dated 2002)

Legend:
[1] = parameters: species or system mice; conditions: mouse, in vivo
Source text: While it is not intended the present invention be limited to any specific formulation or dimension of silastic tubing, in one embodiment said silastic tubing was fabricated according to the following method. Tubing (0.078 in. inner diameter by 0.125 in. outer diameter; Dow Corning, Midland, Mich.) was filled with 17β-estradiol (1,3,5[10]-Estratriene-3, 17β) (Sigma Chemical Company, St. Louis, Mo.) mixed 1:3 (w/w) with silastic 382 medical grade elastomer (Dow Coming, St. Louis, Mo.). The mixture was allowed to dry and the tubing cut, in one embodiment, to a size (approximately 2×2×1 mm) which yielded a measurable circulating estradiol concentration of about 150-200 pg/ml in mice. It may be noted that this concentration of estradiol approximates the concentration of estrogen in women during the late follicular phase of the menstrual cycle.

HPV-11 = HPV-11 infection of human vaginal xenografts engrafted in immunocompromised mouse, virus pre-treated with candidate microbicide; format: in vivo; conditions: HPV-11 treated with 0.05% SDS at 37° C. for 10 minutes, then placed in lumen of grafts engrafted ten days in immunocompromised mouse
Source text: In this example, human vaginal xenografts were infected with HPV by inoculating the lumen of said vaginal xenografts, engrafted into a non-human host, with HPV-11 stock virus suspensions prepared according to the methods presented in Example 1. […] Furthermore, it is not necessary to traumatize the walls of said grafts during inoculation to precipitate infection.
In experimental samples, candidate microbicides are mixed with HPV in vitro prior to administration of said HPV/candidate microbicide mixture to the lumen of a vaginal xenograft engrafted into a non-human host. In an alternative experimental embodiment, candidate microbicides were pre-administered to the vaginal lumen, before delivery of a pathogenic agent, into the same lumen.
Xenografts are harvested at 70-90 days and are screened for signs of virus replication. Said screening protocols include quantification of morphologic transformations, viral DNA and RNA synthesis, and protein synthesis. In addition, cell-free extracts of infected xenografts are tested by bioassay for the presence of infectious virus using standard procedures for infection and transformation of vaginal epithelium. […]

[2] = tested on: human vaginal xenograft epithelium; assay: Survival and morphology of treated epithelium in the human vaginal xenograft; format: in vivo; conditions: grafts receiving virus treated with 0.05% SDS
Method: In this example, human vaginal xenografts engrafted for ten days in the subcutaneous space of an immunocompromised mouse were infected with 10 u l of HPV-11, or HPV-11 that had been treated with 0.05% SDS at 37° C. for 10 minutes and then placed in the lumen of the grafts. At varying intervals, the infected human xenografts (or portions thereof) were surgically removed and examined.

HIV = conditions: cited from earlier work
[3] = some people; cited from earlier work
HPVs = conditions: cited from earlier work
HIV-1 = conditions: in vitro; cited from earlier work
HSV-2 = conditions: in vitro; cited from earlier work

C[C@]12CC[C@@H]3c4ccc(O)cc4CC[C@H]3[C@@H]1CC[C@@H]2O [17β-estradiol, 17β-estradiol (1,3,5[10]-Estratriene-3, 17β)]
circulating estradiol concentration [1]: 150 to 200 pg/mL

CCCCCCCCCCCCOS(=O)(=O)[O-].[Na+] [SDS, Sodium Dodecyl Sulfate]
prevention of virus infection (papillomatous transformation, virus DNA, virus protein) (HPV-11): effectively prevented virus infection
killing of treated epithelium in the vaginal xenograft [2]: did not kill the treated epithelium
morphology of tissues receiving treated virus [2]: stratified squamous epithelium with a morphology analogous to normal in situ vagina

Nonoxynol-9 [N-9]
prevention of transmission of HIV to women (HIV): has not been proven to prevent transmission
irritation and ulceration [3]: may cause irritation and ulceration in some people
inactivation of / effectiveness against HPVs (HPVs): does not inactivate HPVs
inactivation of HIV-1 (HIV-1): inactivates
inactivation of HSV-2 (HSV-2): inactivates
